From patent publication US20250289787A1, “HERBICIDAL 2-OXO-NICOTINIC ACID DERIVATIVES” (SYNGENTA CROP PROTECTION AG, priority 2022, published 2025)

Key:
Format in all cases: in vivo
Set-up in all cases: key: 5=81-100%; 4=61-80%; 3=41-60%; 2=21-40%; 1=1-20%; 0=no damage to the plant; -=not tested
Zea mays (ZEAMX) [1] = assay: Post-emergence test, herbicidal damage; conditions: sprayed after 8 days cultivation, 1000 g/ha unless otherwise stated, evaluated after 13 days, five-point scale
Description: (§1) Seeds of a variety of test species are sown in standard soil in pots Amaranthus palmeri (AMAPA), (Amaranthus retoflexus (AMARE), Echinochloa crus-galli (ECHCG), Zea mays (ZEAMX), Ipomoea 5 hederacea (IPOHE), and Setaria faberi (SETFA). After 8 days cultivation under controlled conditions in a glasshouse (at 24° C./16° C., day/night; 14 hours light; 65% humidity), the plants are sprayed with an aqueous spray solution derived from the formulation of the technical active ingredient in acetone/water (50:50) solution containing 0.5% Tween 20 (polyoxyethelyene sorbitan monolaurate, CAS RN 9005-64-5). Compounds are applied at 1000 g/ha unless otherwise stated. The test plants are then grown in a glasshouse under controlled conditions in a glasshouse (at 24° C./16° C., day/night; 14 hours light; 65% humidity) and watered twice daily. After 13 days the test is evaluated for the percentage damage caused to the plant. The biological activities are shown in the following table on a five-point scale (5=81-100%; 4=61-80%; 3=41-60%; 2=21-40%; 1=1-20%; 0=no damage to the plant; -=not tested).

[2] = tested on: Ipomoea hederacea (IPOHE); assay: Post-emergence test, herbicidal damage; conditions: sprayed after 8 days cultivation, 1000 g/ha unless otherwise stated, evaluated after 13 days, five-point scale
Description: as §1

[3] = tested on: Amaranthus palmeri (AMAPA); assay: Post-emergence test, herbicidal damage; conditions: sprayed after 8 days cultivation, 1000 g/ha unless otherwise stated, evaluated after 13 days, five-point scale
Description: as §1

[4] = tested on: Amaranthus retoflexus (AMARE); assay: Post-emergence test, herbicidal damage; conditions: sprayed after 8 days cultivation, 1000 g/ha unless otherwise stated, evaluated after 13 days, five-point scale
Description: as §1

[5] = tested on: Echinochloa crus-galli (ECHCG); assay: Post-emergence test, herbicidal damage; conditions: sprayed after 8 days cultivation, 1000 g/ha unless otherwise stated, evaluated after 13 days, five-point scale
Description: as §1

Setaria faberi (SETFA) [6] = assay: Post-emergence test, herbicidal damage; conditions: sprayed after 8 days cultivation, 1000 g/ha unless otherwise stated, evaluated after 13 days, five-point scale
Description: as §1

[7] = tested on: Ipomoea hederacea (IPOHE); assay: Pre-emergence test, herbicidal damage; conditions: 1000 g/ha unless otherwise stated, evaluated after 13 days, five-point scale
[8] = tested on: Echinochloa crus-galli (ECHCG); assay: Pre-emergence test, herbicidal damage; conditions: 1000 g/ha unless otherwise stated, evaluated after 13 days, five-point scale
Setaria faberi (SETFA) [9] = assay: Pre-emergence test, herbicidal damage; conditions: 1000 g/ha unless otherwise stated, evaluated after 13 days, five-point scale
[10] = tested on: Amaranthus retoflexus (AMARE); assay: Pre-emergence test, herbicidal damage; conditions: 1000 g/ha unless otherwise stated, evaluated after 13 days, five-point scale
Zea mays (ZEAMX) [11] = assay: Pre-emergence test, herbicidal damage; conditions: 1000 g/ha unless otherwise stated, evaluated after 13 days, five-point scale
[12] = tested on: Amaranthus palmeri (AMAPA); assay: Pre-emergence test, herbicidal damage; conditions: 1000 g/ha unless otherwise stated, evaluated after 13 days, five-point scale

Row | SMILES | percentage damage caused to the plant, ZEAMX (Zea mays (ZEAMX) [1]) | percentage damage caused to the plant, IPOHE [2] | percentage damage caused to the plant, AMAPA [3] | percentage damage caused to the plant, AMARE [4] | percentage damage caused to the plant, ECHCG [5] | percentage damage caused to the plant, SEFTA (Setaria faberi (SETFA) [6]) | percentage damage caused to the plant, IPOHE [7] | percentage damage caused to the plant, ECHCG [8] | percentage damage caused to the plant, SEFTA (Setaria faberi (SETFA) [9]) | percentage damage caused to the plant, AMARE [10] | percentage damage caused to the plant, ZEAMX (Zea mays (ZEAMX) [11]) | percentage damage caused to the plant, AMAPA [12]
1 | Cc1[nH]c(=O)c(C(=O)O)c(-c2ccc(Cl)c(Cl)c2)c1Br [Compound 1, 5-bromo-4-(3,4-dichlorophenyl)-6-methyl-2-oxo-1H-pyridine-3-carboxylic acid] | 1 (1=1-20%) | 1 (1=1-20%) | 5 (5=81-100%) | 5 (5=81-100%) | 0 | 1 (1=1-20%) | 0 | 1 (1=1-20%) | 0 | 2 (2=21-40%) | 0 | 3 (3=41-60%)
2 | Cc1[nH]c(=O)c(C(=O)O)c(-c2ccc(Cl)c(Cl)c2)c1Cl [Compound 2, 5-chloro-4-(3,4-dichlorophenyl)-6-methyl-2-oxo-1H-pyridine-3-carboxylic acid] | 0 | 0 | 0 | 0 | 0 | 0 | 0 | 0 | 0 | 0 | 0 | 0
3 | Cc1c(Cl)c(-c2ccc(Cl)c(Cl)c2)c(C(=O)O)c(=O)n1-c1ccc(Cl)cc1 [Compound 3, 5-chloro-1-(4-chlorophenyl)-4-(3,4-dichlorophenyl)-6-methyl-2-oxo-pyridine-3-carboxylic acid] | 1 (1=1-20%) | 2 (2=21-40%) | 4 (4=61-80%) | 4 (4=61-80%) | 0 | 1 (1=1-20%) | 0 | 1 (1=1-20%) | 2 (2=21-40%) | 2 (2=21-40%) | 0 | 4 (4=61-80%)
4 | Cc1c(Cl)c(-c2ccc(Cl)c(Cl)c2)c(C(=O)O)c(=O)n1C [Compound 4, 5-chloro-4-(3,4-dichlorophenyl)-1,6-dimethyl-2-oxo-pyridine-3-carboxylic acid] | 0 | 0 | 2 (2=21-40%) | 1 (1=1-20%) | 0 | 0 | 0 | 0 | 0 | 1 (1=1-20%) | 0 | 1 (1=1-20%)
5 | Cc1c(Br)c(-c2ccc(Cl)c(Cl)c2)c(C(=O)O)c(=O)n1C [Compound 5, 5-bromo-4-(3,4-dichlorophenyl)-1,6-dimethyl-2-oxo-pyridine-3-carboxylic acid] | 1 (1=1-20%) | 1 (1=1-20%) | 1 (1=1-20%) | 1 (1=1-20%) | 0 | 0 | 0 | 0 | 0 | 0 | 0 | 0
6 | Cc1cc(-c2ccc(Cl)c(Cl)c2)c(C(=O)O)c(=O)n1-c1ccc(F)cc1F [Compound 14, 4-(3,4-dichlorophenyl)-1-(2,4-difluorophenyl)-6-methyl-2-oxo-pyridine-3-carboxylic acid] | 1 (1=1-20%) | 0 | 1 (1=1-20%) | 1 (1=1-20%) | 1 (1=1-20%) | 1 (1=1-20%) | 0 | 0 | 0 | 0 | 0 | 
7 | Cc1c(Br)c(-c2ccc(Cl)c(Cl)c2)c(C(=O)O)c(=O)n1-c1ccc(Cl)cc1F [Compound 21, 5-bromo-1-(4-chloro-2-fluoro-phenyl)-4-(3,4-dichlorophenyl)-6-methyl-2-oxo-pyridine-3-carboxylic acid] | 1 (1=1-20%) | 1 (1=1-20%) | 4 (4=61-80%) |  | 0 | 1 (1=1-20%) |  | 1 (1=1-20%) | 1 (1=1-20%) | 4 (4=61-80%) | 0 | 4 (4=61-80%)
8 | Cc1cc(-c2ccc(Cl)c(Cl)c2)c(C(=O)O)c(=O)n1Cc1ccc(C(F)(F)F)cc1F [Compound 27, 4-(3,4-dichlorophenyl)-1-[[2-fluoro-4-(trifluoromethyl)phenyl]methyl]-6-methyl-2-oxo-pyridine-3-carboxylic acid] | 0 |  | 1 (1=1-20%) | 0 | 0 | 0 | 0 |  | 0 | 0 | 0 | 1 (1=1-20%)
9 | Cc1c(Br)c(-c2ccc(Cl)c(Cl)c2)c(C(=O)O)c(=O)n1-c1ccc(F)cc1F [Compound 29, 5-bromo-4-(3,4-dichlorophenyl)-1-(2,4-difluorophenyl)-6-methyl-2-oxo-pyridine-3-carboxylic acid] | 0 | 1 (1=1-20%) |  | 1 (1=1-20%) | 1 (1=1-20%) | 1 (1=1-20%) | 1 (1=1-20%) | 1 (1=1-20%) | 1 (1=1-20%) | 1 (1=1-20%) | 0 | 
